These are literature values, as cited in US11975079B2, “Truncated Evans Blue modified fibroblast activation protein inhibitor, preparation method and application thereof” (YANTAI LANNACHENG BIOTECHNOLOGY CO., LTD., priority 2021, dated 2024).

Take `N#C[C@@H]1CCCN1C(=O)CNC(=O)c1ccnc2ccc(OCCCN3CCN(C(=O)CN4CCN(CC(=O)O)CCN(CC(=O)O)CCN(CC(=O)O)CC4)CC3)cc12` [FAPI-02]: under “24 hours later”, the “decrease of retained dose at tumor site” value was “about 75%”. The “clearance in blood circulation” value (according to current reports) was “completely cleared in blood circulation within one hour”.
